Counter-ions that a name gives are not always drawn.
Row | Compound | melting point
1 | CC(C)N1CCC[C@@H](N2CCc3cc(-c4ccc(C(=O)N5CCCC5)cc4)ccc3C2=O)C1 (as salt: hydrochloride) [Example 72, 2-[(3R)-1-isopropylpiperidin-3-yl]-6-[4-(pyrrolidin-1-ylcarbonyl)phenyl]-3,4-dihydroisoquinolin-1(2H)-one] | 274 to 275 °C
2 | O=C(NC1CCC1)c1ccc(COc2ccc3c(c2)CCN(C2CCN(C4CCC4)CC2)C3=O)cc1 (as salt: hydrochloride) [Example 19, N-Cyclobutyl-4-({[2-(1-cyclobutylpiperidin-4-yl)-1-oxo-1,2,3,4-tetrahydroisoquinolin-6-yl]oxy}methyl)benzamide] | 286 to 288 °C
3 | N#Cc1ccc(-c2ccc3c(c2)CN(C2CCNCC2)C3=O)cc1 (as salt: hydrochloride) [Example 22, 4-(1-oxo-2-piperidin-4-yl-2,3-dihydro-1H-isoindol-5-yl)benzonitrile hydrochloride] | 105 to 106 °C
4 | CC(C)N1CC[C@@H](N2CCc3cc(-c4ccc(C(=O)N5CCCC5)cc4)ccc3C2=O)C1 (as salt: hydrochloride) [Example 56, 2-[(3R)-1-(1-methylethyl)pyrrolidin-3-yl]-6-[4-(pyrrolidin-1-ylcarbonyl)phenyl]-3,4-dihydroisoquinolin-1(2H)-one] | 220 to 222 °C
5 | NC(=O)c1ccc(COc2ccc3c(c2)CCN(C2CCN(C4CCC4)CC2)C3=O)cc1 (as salt: hydrochloride) [Example 15, 4-({[2-(1-cyclobutylpiperidin-4-yl)-1-oxo-1,2,3,4-tetrahydroiso-quinolin-6-yl]oxy}methyl)benzamide acid hydrochloride] | 292 to 293 °C
6 | N#Cc1ccc(-c2ccc3c(c2)CN(C2CCN(CC4CC4)CC2)C3=O)cc1 (as salt: hydrochloride) [Example 26, 4-{2-[1-(Cyclopropylmethyl)piperidin-4-yl]-1-oxo-2,3-dihydro-1H-isoindol-5-yl}benzonitrile] | 309 to 310 °C
7 | CNC(=O)c1ccc(Oc2ccc3c(c2)CCN(C2CCN(C4CCC4)CC2)C3=O)cc1 (as salt: hydrochloride) [Example 4, 4-{[2-(1-Cyclobutylpiperidin-4-yl)-1-oxo-1,2,3,4-tetrahydroisoquinolin-6-yl]oxy}-N-methylbenzamide] | > 310 °C
8 | CNC(=O)c1ccc(-c2ccc3c(c2)CCN([C@@H]2CCN(C(C)C)C2)C3=O)c(F)c1 (as salt: hydrochloride) [Example 85, 3-fluoro-4-{2-[(3R)-1-isopropylpyrrolidin-3-yl]-1-oxo-1,2,3,4-tetrahydroisoquinolin-6-yl}-N-methylbenzamide] | 245 to 247 °C
9 | NC(=O)c1ccc(Oc2ccc3c(c2)CCN(C2CCN(C4CCC4)CC2)C3=O)cc1 (as salt: hydrochloride) [Example 3, 4-{[2-(1-cyclobutylpiperidin-4-yl)-1-oxo-1,2,3,4-tetrahydroiso-quinolin-6-yl]oxy}benzamide Hydrochloride] | 309 to 310 °C
10 | O=C(c1ccc(-c2ccc3c(c2)CCN([C@@H]2CCN(CC4CCCC4)C2)C3=O)cc1)N1CCCC1 (as salt: hydrochloride) [Example 59, 2-[(3R)-1-(cyclopentylmethyl)pyrrolidin-3-yl]-6-[4-(pyrrolidin-1-ylcarbonyl)phenyl]-3,4-dihydroisoquinolin-1(2H)-one] | 288 to 290 °C

More lines, now with the values ahead:

Row | melting point | Compound
11 | 270 °C (dec.) | N#Cc1ccc(-c2ccc3c(c2)CN(C2CCN(C4CCCC4)CC2)C3=O)cc1 (as salt: hydrochloride) [Example 29, 4-[2-(1-Cyclopentylpiperidin-4-yl)-1-oxo-2,3-dihydro-1H-isoindol-5-yl]benzonitrile]
12 | > 200 °C | O=C(c1ccc(-c2ccc3c(c2)CCN([C@@H]2CCN(C4CCCC4)C2)C3=O)cc1)N1CCCC1 (as salt: hydrochloride) [Example 43, 2-[(3R)-1-cyclopentylpyrrolidin-3-yl]-6-[4-(pyrrolidin-1-ylcarbonyl)phenyl]-3,4-dihydroisoquinolin-1(2H)-one]
13 | 207 to 208 °C | CNC(=O)c1ccc(-c2ccc3c(c2)CN([C@@H]2CCN(C4CCC4)C2)C3=O)cc1 (as salt: hydrochloride) [Example 91, (R)-4-(2-(1-cyclobutylpyrrolidin-3-yl)-1-oxoisoindolin-5-yl)-N-methylbenzamide hydrochloride]
14 | > 240 °C | CNC(=O)c1ccc(-c2ccc3c(c2)CCN([C@@H]2CCN(C4CCCC4)C2)C3=O)cc1 (as salt: hydrochloride) [Example 41, 4-{2-[(3R)-1-cyclopentylpyrrolidin-3-yl]-1-oxo-1,2,3,4-tetrahydroisoquinolin-6-yl}-N-methylbenzamide]
15 | > 300 °C | N#Cc1ccc(-c2ccc3c(c2)CN(C2CCN(C4CCCCC4)CC2)C3=O)cc1 (as salt: hydrochloride) [Example 30, 4-[2-(1-Cyclohexylpiperidin-4-yl)-1-oxo-2,3-dihydro-1H-isoindol-5-yl]benzonitrile]
16 | 231 to 233 °C | O=C1c2ccc(-c3ccc(F)cc3)cc2CCN1[C@@H]1CCN(C2CCC2)C1 (as salt: hydrochloride) [Example 51, 2-[(3R)-1-cyclobutylpyrrolidin-3-yl]-6-(4-fluorophenyl)-3,4-dihydroisoquinolin-1(2H)-one]
17 | > 273 °C | O=C(c1ccc(-c2ccc3c(c2)CCN(C2CCNCC2)C3=O)cc1)N1CCCC1 [Example 64, 2-(piperidin-4-yl)-6-(4-(pyrrolidine-1-carbonyl)phenyl)-3,4-dihydroisoquinolin-1(2H)-one]

Reference: patent US20090069370A1, “AZACYCLYLISOQUINOLINONE AND ISOINDOLINONE DERIVATIVES AS HISTAMINE-3 ANTAGONISTS” (Wyeth, priority 2007, published 2009)
